Measurements published in patent US20240269139A1, “COMPOUNDS FOR TARGETED PROTEIN DEGRADATION OF KINASES” (DANA-FARBER CANCER INSTITUTE, INC., priority 2020, published 2024).
Read-outs that look alike come from different tables or passages of the source.

Legend:
Type in all cases: cell-based
[1] = target: protein kinases (human kinome) (Homo sapiens, UniProt P07947); conditions: YES1 (P07947)
[2] = target: protein kinases (human kinome) (Homo sapiens, UniProt P51812); conditions: RPS6KA3 (P51812)
protein kinases (human kinome) (Homo sapiens, UniProt P51812), sequence (P51812 whole entry): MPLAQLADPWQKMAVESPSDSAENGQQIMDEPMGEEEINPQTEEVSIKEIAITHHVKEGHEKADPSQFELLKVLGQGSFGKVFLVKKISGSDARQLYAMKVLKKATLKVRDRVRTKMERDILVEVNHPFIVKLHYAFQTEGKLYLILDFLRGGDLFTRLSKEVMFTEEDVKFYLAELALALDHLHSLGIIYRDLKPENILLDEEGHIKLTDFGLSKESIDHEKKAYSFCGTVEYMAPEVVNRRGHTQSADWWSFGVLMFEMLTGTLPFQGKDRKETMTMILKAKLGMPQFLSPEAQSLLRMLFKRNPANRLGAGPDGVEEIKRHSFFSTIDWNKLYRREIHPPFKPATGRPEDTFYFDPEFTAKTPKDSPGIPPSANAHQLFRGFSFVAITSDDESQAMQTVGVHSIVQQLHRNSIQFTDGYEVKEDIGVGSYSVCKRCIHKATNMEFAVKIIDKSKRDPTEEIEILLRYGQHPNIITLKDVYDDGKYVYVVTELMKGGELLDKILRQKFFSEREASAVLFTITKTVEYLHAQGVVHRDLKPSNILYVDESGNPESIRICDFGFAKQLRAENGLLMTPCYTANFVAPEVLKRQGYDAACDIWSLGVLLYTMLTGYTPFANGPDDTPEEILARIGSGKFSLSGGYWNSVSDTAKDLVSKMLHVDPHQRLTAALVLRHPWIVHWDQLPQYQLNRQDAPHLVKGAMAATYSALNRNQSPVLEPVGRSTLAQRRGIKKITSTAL

[3] = target: T1, protein kinases (human kinome) (Homo sapiens, UniProt Q8TAS1)
T1 sequence (Q8TAS1 1-419): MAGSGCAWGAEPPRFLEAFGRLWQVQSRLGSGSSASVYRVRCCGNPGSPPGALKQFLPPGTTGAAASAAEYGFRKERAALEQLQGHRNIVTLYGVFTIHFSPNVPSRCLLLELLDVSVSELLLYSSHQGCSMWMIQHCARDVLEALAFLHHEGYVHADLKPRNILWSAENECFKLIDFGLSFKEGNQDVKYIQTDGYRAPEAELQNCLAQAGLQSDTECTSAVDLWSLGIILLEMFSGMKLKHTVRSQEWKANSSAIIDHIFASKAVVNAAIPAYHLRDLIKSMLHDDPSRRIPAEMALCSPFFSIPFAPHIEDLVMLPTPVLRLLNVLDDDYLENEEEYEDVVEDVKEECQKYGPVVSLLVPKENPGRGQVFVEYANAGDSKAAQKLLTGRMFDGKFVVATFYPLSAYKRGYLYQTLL

[4] = target: protein kinases (human kinome) (Homo sapiens, UniProt P41240); conditions: for logFC of CSK: Accession P41240; for logFC CSK: CSK (P41240), down
protein kinases (human kinome) (Homo sapiens, UniProt P41240), sequence (P41240 whole entry): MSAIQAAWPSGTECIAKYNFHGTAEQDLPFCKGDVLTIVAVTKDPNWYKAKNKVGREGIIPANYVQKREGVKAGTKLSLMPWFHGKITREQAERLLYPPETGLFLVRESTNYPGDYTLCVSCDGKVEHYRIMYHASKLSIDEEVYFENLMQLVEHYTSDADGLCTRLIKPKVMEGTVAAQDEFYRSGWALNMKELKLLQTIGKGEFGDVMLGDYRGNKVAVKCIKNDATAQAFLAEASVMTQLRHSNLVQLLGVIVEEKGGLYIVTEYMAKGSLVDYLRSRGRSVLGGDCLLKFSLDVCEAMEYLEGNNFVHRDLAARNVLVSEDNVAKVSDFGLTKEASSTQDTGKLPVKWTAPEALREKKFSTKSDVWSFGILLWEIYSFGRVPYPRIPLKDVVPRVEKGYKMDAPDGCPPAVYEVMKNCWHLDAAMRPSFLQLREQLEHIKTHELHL

[5] = target: protein kinases (human kinome) (Homo sapiens, UniProt Q16584)
protein kinases (human kinome) (Homo sapiens, UniProt Q16584), sequence (Q16584 whole entry): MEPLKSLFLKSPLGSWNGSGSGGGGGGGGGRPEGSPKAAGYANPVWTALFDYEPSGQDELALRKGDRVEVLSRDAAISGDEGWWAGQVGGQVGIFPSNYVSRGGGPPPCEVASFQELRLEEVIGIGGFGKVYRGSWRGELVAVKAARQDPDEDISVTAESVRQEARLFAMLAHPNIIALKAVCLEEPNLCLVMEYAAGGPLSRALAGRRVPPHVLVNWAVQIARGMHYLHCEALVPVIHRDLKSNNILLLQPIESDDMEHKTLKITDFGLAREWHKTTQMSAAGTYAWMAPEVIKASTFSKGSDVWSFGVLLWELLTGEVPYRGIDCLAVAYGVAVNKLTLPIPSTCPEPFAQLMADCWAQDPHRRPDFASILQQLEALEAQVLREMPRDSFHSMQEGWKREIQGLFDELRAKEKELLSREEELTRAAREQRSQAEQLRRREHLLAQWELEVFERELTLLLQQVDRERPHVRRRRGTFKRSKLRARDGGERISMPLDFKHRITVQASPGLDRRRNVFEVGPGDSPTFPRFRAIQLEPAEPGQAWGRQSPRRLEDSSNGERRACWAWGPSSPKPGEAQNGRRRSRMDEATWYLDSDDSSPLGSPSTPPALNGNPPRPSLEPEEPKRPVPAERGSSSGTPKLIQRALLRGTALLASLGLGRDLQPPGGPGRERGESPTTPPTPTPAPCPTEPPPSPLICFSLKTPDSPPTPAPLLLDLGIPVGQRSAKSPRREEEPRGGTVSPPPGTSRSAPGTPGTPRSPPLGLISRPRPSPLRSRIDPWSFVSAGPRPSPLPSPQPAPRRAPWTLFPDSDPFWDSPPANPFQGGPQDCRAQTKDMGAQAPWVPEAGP

[6] = target: protein kinases (human kinome) (Homo sapiens, UniProt Q8TDR2)
protein kinases (human kinome) (Homo sapiens, UniProt Q8TDR2), sequence (Q8TDR2 whole entry): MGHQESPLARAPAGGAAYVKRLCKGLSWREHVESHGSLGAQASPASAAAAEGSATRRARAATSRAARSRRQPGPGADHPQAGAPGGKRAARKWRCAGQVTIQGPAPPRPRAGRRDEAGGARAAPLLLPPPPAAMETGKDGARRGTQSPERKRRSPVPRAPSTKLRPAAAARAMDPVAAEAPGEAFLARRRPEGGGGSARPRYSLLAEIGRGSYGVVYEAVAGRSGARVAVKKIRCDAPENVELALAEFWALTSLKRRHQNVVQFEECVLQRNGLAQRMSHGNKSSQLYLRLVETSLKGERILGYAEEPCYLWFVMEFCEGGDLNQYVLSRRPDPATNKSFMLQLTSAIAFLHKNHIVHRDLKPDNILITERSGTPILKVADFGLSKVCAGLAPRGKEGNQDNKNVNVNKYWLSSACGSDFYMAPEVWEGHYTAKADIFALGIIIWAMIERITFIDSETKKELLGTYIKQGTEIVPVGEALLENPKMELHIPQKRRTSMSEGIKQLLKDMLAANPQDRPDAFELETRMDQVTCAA

[7] = target: protein kinases (human kinome) (Homo sapiens, UniProt Q14004); conditions: for logFC CDK13: Accession Q14004-1
protein kinases (human kinome) (Homo sapiens, UniProt Q14004), sequence (Q14004 whole entry): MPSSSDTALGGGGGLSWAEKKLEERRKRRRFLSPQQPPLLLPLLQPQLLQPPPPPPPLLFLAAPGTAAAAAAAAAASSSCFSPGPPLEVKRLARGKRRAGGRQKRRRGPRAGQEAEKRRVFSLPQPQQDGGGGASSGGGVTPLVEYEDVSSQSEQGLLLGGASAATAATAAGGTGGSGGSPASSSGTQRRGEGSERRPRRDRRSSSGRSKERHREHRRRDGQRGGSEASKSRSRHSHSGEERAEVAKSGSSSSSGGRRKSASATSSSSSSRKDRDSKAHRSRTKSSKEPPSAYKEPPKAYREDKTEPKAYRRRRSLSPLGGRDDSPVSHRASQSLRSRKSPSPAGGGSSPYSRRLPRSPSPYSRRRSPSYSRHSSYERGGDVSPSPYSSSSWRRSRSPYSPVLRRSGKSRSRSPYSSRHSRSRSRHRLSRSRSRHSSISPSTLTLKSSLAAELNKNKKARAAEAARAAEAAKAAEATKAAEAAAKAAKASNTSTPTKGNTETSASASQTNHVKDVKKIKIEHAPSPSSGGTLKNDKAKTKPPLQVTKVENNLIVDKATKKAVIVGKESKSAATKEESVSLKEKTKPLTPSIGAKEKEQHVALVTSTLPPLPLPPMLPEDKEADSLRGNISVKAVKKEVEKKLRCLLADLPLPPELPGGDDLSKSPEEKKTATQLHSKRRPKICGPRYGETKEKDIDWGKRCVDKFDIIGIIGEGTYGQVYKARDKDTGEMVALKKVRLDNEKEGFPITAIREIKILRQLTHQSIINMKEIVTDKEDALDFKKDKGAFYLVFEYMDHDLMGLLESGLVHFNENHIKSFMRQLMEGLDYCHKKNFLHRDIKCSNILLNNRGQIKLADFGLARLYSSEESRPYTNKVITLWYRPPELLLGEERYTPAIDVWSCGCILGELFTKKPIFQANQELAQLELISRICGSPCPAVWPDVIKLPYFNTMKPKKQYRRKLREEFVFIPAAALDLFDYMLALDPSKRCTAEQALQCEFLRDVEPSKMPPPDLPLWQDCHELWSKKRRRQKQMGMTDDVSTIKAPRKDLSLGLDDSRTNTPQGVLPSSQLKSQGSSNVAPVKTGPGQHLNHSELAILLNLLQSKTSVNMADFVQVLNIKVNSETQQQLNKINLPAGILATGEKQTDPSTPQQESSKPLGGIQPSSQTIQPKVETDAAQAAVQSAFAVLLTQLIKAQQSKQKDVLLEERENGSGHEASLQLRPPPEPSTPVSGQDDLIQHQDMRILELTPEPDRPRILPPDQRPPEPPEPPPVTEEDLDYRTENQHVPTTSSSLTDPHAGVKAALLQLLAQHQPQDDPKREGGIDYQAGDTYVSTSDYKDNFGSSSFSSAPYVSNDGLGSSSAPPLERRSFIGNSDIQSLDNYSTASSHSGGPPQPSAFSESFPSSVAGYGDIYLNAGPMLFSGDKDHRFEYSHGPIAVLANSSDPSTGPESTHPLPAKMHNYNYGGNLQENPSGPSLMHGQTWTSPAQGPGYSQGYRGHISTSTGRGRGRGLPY

[8] = target: protein kinases (human kinome) (Homo sapiens, UniProt Q15118); conditions: PDK1 Q15118
protein kinases (human kinome) (Homo sapiens, UniProt Q15118), sequence (Q15118 29-436): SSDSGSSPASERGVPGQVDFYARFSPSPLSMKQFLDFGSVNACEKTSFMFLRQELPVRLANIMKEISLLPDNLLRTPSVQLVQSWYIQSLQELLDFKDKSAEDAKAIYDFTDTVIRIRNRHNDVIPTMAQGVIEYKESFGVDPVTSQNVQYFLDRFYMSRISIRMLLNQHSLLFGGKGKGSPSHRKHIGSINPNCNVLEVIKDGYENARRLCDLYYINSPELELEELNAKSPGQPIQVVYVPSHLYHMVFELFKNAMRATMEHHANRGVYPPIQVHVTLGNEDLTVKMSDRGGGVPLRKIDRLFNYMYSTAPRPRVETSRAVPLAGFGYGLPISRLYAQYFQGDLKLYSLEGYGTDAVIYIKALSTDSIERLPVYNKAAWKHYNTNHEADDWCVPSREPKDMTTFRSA

[9] = experiment wp168, direction down
[10] = experiment wp146, direction down
[11] = Accession Q8TAS1, experiment wp076, direction down
[12] = UHMK1 (Q8TAS1), experiment wp076

protein kinases (human kinome) (Homo sapiens, UniProt P07947), sequence (P07947 whole entry): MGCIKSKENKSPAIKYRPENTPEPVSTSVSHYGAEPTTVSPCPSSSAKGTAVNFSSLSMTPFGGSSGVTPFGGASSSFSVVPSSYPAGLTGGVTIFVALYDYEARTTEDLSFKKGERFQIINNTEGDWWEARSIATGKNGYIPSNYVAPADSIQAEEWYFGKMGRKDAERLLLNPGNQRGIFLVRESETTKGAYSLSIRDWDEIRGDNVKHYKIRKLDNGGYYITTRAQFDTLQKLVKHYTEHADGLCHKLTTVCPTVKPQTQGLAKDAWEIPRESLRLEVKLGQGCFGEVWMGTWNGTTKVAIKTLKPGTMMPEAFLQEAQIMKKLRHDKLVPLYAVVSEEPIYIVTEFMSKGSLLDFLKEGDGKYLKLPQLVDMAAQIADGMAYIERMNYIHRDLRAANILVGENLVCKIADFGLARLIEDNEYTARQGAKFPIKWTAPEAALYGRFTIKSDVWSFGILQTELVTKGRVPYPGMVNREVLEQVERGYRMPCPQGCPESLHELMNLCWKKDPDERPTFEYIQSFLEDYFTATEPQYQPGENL

With `Cc1ccc(NC(=O)c2cccc(C(F)(F)F)c2)cc1N1Cc2cnc(Nc3ccc(N4CCN(CCCOc5cccc6c5C(=O)N(C5CCC(=O)NC5=O)C6=O)CC4)nc3)nc2N(C)C1=O` (stereo not drawn) [DB0662] the logFC ([1]; experiment wp168) was −0.8025, the logFC [1, 9] was −0.8025 and the logFC ([2]; experiment wp168) was −0.452. The logFC [2, 9] was −0.452, the “logFC UHMK1” value ([3]; Accession Q8TAS1, experiment wp168, direction down) was −0.3949 and the “logFC UHMK1” value ([3]; UHMK1 (Q8TAS1), experiment wp168) was −0.3949. For the same molecule, the “logFC of CSK” value ([4]; experiment wp168) was −1.833, the “logFC CSK” value ([4]; experiment wp168) was −1.833 and the “logFC MAP3K11 (Q16584)” value ([5]; experiment wp168) was −0.7288.

With `Nc1ncc(-c2ccc(S(=O)(=O)N(CCCNC(=O)CCOCCOCCOCCOCCOCCNc3cccc4c3C(=O)N(C3CCC(=O)NC3=O)C4=O)C3CC3)cc2)cc1-c1ccc2c(c1)CCNC2=O` (stereo not drawn) [WH.10417.099] the “logFC STK35” value ([6]; Accession Q8TDR2, experiment wp056, direction down) was −2.073, the “logFC STK35” value ([6]; Accession Q8TDR2, experiment wp103, direction down) was −1.239 and the “logFC STK35” value ([6]; Accession Q8TDR2, experiment wp107, direction down) was −1.954. For the same molecule, the “logFC STK35” value ([6]; STK35 (Q8TDR2), experiment wp056) was −2.073, the “logFC STK35” value ([6]; STK35 (Q8TDR2), experiment wp103) was −1.239 and the “logFC STK35” value ([6]; STK35 (Q8TDR2), experiment wp107) was −1.954.

In the case of `Nc1ncnc2c1c(-c1ccc(Oc3ccccc3)cc1)nn2[C@H]1CC[C@H](N2CCN(CCOCCNC(=O)CNc3cccc4c3C(=O)N(C3CCC(=O)NC3=O)C4=O)CC2)CC1` (stereo partly drawn) [SB1.G.181], the “logFC of CSK” value ([4]; experiment wp071) is reported as −3.229 and the “logFC CSK” value ([4]; experiment wp071) is reported as −3.229.

For `CC(C)S(=O)(=O)c1ccccc1Nc1nc(Nc2ccc(N3CCN(CCOCCOCCC(=O)NCCNc4cccc5c4CN(C4CCC(=O)NC4=O)C5=O)CC3)cc2)ncc1Cl` (stereo not drawn) [TL13.97], the “logFC CDK13” value ([7]; experiment wp137) was −0.7359, the “logFC CDK13 (Q14004-1)” value ([7]; experiment wp137) was −0.7359 and the “logFC MAP3K11 (Q16584)” value ([5]; experiment wp137) was −0.7626.

For `Cc1cc(Nc2ncc(Br)c(Nc3cccc(F)c3C(N)=O)n2)ccc1S(=O)(=O)NCCOCCOCCOCCOCCNc1cccc2c1C(=O)N(C1CCC(=O)NC1=O)C2=O` (stereo not drawn) [TMX.02.174], the “logFC STK35” value ([6]; Accession Q8TDR2, experiment wp146, direction down) was −0.5631, the “logFC STK35” value ([6]; STK35 (Q8TDR2), experiment wp146) was −0.5631 and the logFC ([2]; experiment wp146) was −0.4312. The logFC [2, 10] was −0.4312 and the “logFC MAP3K11 (Q16584)” value ([5]; experiment wp146) was −1.874.

For `NC(=O)c1c(F)cccc1Nc1nc(Nc2ccc(S(=O)(=O)NCCOCCOCCOCCOCCNc3cccc4c3C(=O)N(C3CCC(=O)NC3=O)C4=O)cc2)ncc1Br` (stereo not drawn) [TMX.02.138], the logFC ([2]; experiment wp146) was −0.4023, the logFC [2, 10] was −0.4023 and the “logFC MAP3K11 (Q16584)” value ([5]; experiment wp146) was −0.9241.

`Cn1c(=O)c(-c2c(Cl)cccc2Cl)cc2cnc(Nc3ccc(OCCNC(=O)CCCCCCNC(=O)COc4cccc5c4C(=O)N(C4CCC(=O)NC4=O)C5=O)cc3)nc21` (stereo not drawn) [SB1.G.192.1] was tested, and the logFC ([1]; experiment wp131) was −1.244, the logFC ([1]; experiment wp131, direction down) was −1.244 and the “logFC of CSK” value ([4]; experiment wp071) was −2.271. The “logFC of CSK” value ([4]; experiment wp081) was −1.966, the “logFC of CSK” value ([4]; experiment wp131) was −1.816 and the “logFC CSK” value ([4]; experiment wp071) was −2.271. The “logFC CSK” value ([4]; experiment wp081) was −1.966, the “logFC CSK” value ([4]; experiment wp131) was −1.816 and the logFC ([8]; experiment wp081) was −0.3388. The “logFC PDK1” value ([8]; experiment wp081) was −0.3388.

For `Cc1ncsc1-c1ccc([C@H](C)NC(=O)[C@@H]2C[C@@H](O)CN2C(=O)[C@@H](NC(=O)CCCCCN2CCN(c3ccc(Nc4ncc5scc(-c6cccc(NS(C)(=O)=O)c6)c5n4)cc3)CC2)C(C)(C)C)cc1` [RSS0680, (2S,4R)-1-((S)-3,3-Dimethyl-2-(6-(4-(4-((7-(3-(methylsulfonamido)phenyl)thieno[3,2-d]pyrimidin-2-yl)amino)phenyl)piperazin-1-yl)hexanamido)butanoyl)-4-hydroxy-N—((S)-1-(4-(4-methylthiazol-5yl)phenyl)ethyl)pyrrolidine-2-carboxamide], the “logFC STK35” value ([6]; Accession Q8TDR2, experiment wp117, direction down) was −0.3937 and the “logFC STK35” value ([6]; STK35 (Q8TDR2), experiment wp117) was −0.3937.

In the case of `Cc1ccc(C(=O)Nc2ccc(CN3CCN(CCCOCCOCCOCCNC(=O)COc4cccc5c4C(=O)N(C4CCC(=O)NC4=O)C5=O)CC3)c(C(F)(F)F)c2)cc1C#Cc1cnc2cccnn12` (stereo not drawn) [SB1.G.187], the logFC ([1]; experiment wp172) is reported as −0.5324, the logFC ([1]; experiment wp172, direction down) is reported as −0.5324 and the logFC ([8]; experiment wp056) is reported as −0.4134. For the same molecule, the “logFC PDK1” value ([8]; experiment wp056) was −0.4134.

Molecule `CNC(=O)c1ccccc1Nc1cc(Nc2ccc(N3CCN(CCOCCOCCNC(=O)CNc4cccc5c4C(=O)N(C4CCC(=O)NC4=O)C5=O)CC3)cc2OC)ncc1C(F)(F)F` (stereo not drawn) [MFH.5.103.1] has a logFC ([2]; experiment wp076) of −1.165 and a logFC ([2]; experiment wp076, direction down) of −1.165.

For `CCc1cnn2c(N(Cc3ccc(N)nc3)C(=O)CCOCCOCCOCCNC(=O)CNc3cccc4c3C(=O)N(C3CCC(=O)NC3=O)C4=O)cc(N3CCCC[C@H]3CCO)nc12` (stereo partly drawn) [MFH.5.115.2], the “logFC UHMK1” value [3, 11] was −0.8774 and the “logFC UHMK1” value [3, 12] was −0.8774.

With `Cc1ccc(NC(=O)c2cccc(C(F)(F)F)c2)cc1N1Cc2cnc(Nc3ccc(N4CCN(CCCCCCOc5cccc6c5C(=O)N(C5CCC(=O)NC5=O)C6=O)CC4)nc3)nc2N(C)C1=O` (stereo not drawn) [DB0663] the “logFC of CSK” value ([4]; experiment wp045) was −1.206 and the “logFC CSK” value ([4]; experiment wp045) was −1.206.

With `CS(=O)(=O)Nc1cccc(-c2csc3cnc(Nc4ccc(N5CCN(CCCCCOc6cccc7c6C(=O)N(C6CCC(=O)NC6=O)C7=O)CC5)cc4)nc23)c1` (stereo not drawn) [DB0614, N-(3-(2-((4-(4-(5-((2-(2,6-Dioxopiperidin-3-yl)-1,3-dioxoisoindolin-4-yl)oxy)pentyl)piperazin-1-yl)phenyl)amino)thieno[3,2-d]pyrimidin-7-yl)phenyl)methanesulfonamide] the “logFC MAP3K11 (Q16584)” value ([5]; experiment wp117) was −0.7291.

In the case of `CC(C)S(=O)(=O)c1ccccc1Nc1nc(Nc2ccc(N3CCN(CCOCCNC(=O)CNc4ccc5c(c4)C(=O)N(C4CCC(=O)NC4=O)C5=O)CC3)cc2)ncc1Cl` (stereo not drawn) [SK.3.93], the “logFC CDK13” value ([7]; experiment wp016) is reported as −0.5636 and the “logFC CDK13 (Q14004-1)” value ([7]; experiment wp016) is reported as −0.5636.

In the case of `Cc1ncsc1-c1ccc([C@H](C)NC(=O)[C@@H]2C[C@@H](O)CN2C(=O)[C@@H](NC(=O)CCOCCOCCN2CCN(c3ccc(Nc4ncc(Cl)c(Nc5ccccc5S(=O)(=O)C(C)C)n4)cc3)CC2)C(C)(C)C)cc1` [FMF.06.098.1], the “logFC STK35” value ([6]; Accession Q8TDR2, experiment wp108, direction down) is reported as −0.6029, the “logFC STK35” value ([6]; Accession Q8TDR2, experiment wp114, direction down) is reported as −0.5116 and the “logFC STK35” value ([6]; Accession Q8TDR2, experiment wp131, direction down) is reported as −0.656. The “logFC STK35” value ([6]; STK35 (Q8TDR2), experiment wp108) was −0.6029, the “logFC STK35” value ([6]; STK35 (Q8TDR2), experiment wp114) was −0.5116 and the “logFC STK35” value ([6]; STK35 (Q8TDR2), experiment wp131) was −0.656. For the same molecule, the “logFC CDK13” value ([7]; experiment wp108) was −0.3664, the “logFC CDK13” value ([7]; experiment wp131) was −0.4981 and the “logFC CDK13 (Q14004-1)” value ([7]; Experiment wp108) was −0.3664. For the same molecule, the “logFC CDK13 (Q14004-1)” value ([7]; experiment wp131) was −0.4981, the “logFC UHMK1” value ([3]; Accession Q8TAS1, experiment wp108, direction down) was −0.3878 and the “logFC UHMK1” value ([3]; UHMK1 (Q8TAS1), experiment wp108) was −0.3878.

In the case of `Cc1ccc(NC(=O)c2cccc(C(F)(F)F)c2)cc1N1Cc2cnc(Nc3ccc(N4CCN(CCCCC(=O)N[C@H](C(=O)N5C[C@H](O)C[C@H]5C(=O)N[C@@H](C)c5ccc(-c6scnc6C)cc5)C(C)(C)C)CC4)nc3)nc2N(C)C1=O` [DB1113], the “logFC STK35” value ([6]; Accession Q8TDR2, experiment wp168, direction down) is reported as −0.7606, the “logFC STK35” value ([6]; STK35 (Q8TDR2), experiment wp168) is reported as −0.7606 and the logFC ([2]; experiment wp168) is reported as −0.5079. The logFC [2, 9] was −0.5079, the “logFC of CSK” value ([4]; experiment wp168) was −1.62 and the “logFC CSK” value ([4]; experiment wp168) was −1.62.

With `O=C1CCC(N2C(=O)c3cccc(NCCCCCCCCN4CCC(NC(=O)c5[nH]ncc5NC(=O)c5c(Cl)cccc5Cl)CC4)c3C2=O)C(=O)N1` (stereo not drawn) [MFH.5.126.1] the “logFC CDK13” value ([7]; experiment wp076) was −0.4846, the “logFC CDK13 (Q14004-1)” value ([7]; experiment wp076) was −0.4846 and the “logFC UHMK1” value [3, 11] was −0.4789. For the same molecule, the “logFC UHMK1” value [3, 12] was −0.4789.
